According to patent US20080039527A1, “Calixarenes as Inhibitors of Protein Kinase B” (Imperial College Innovations Ltd., priority 2003, published 2008):
Like-named read-outs stand apart in the source and are kept apart here.

What was measured:
[1] = system: PKB Ser473 phosphorylation; assay: PKB Ser473 activation synergy experiments (Western blot, NIH3T3 cells primed with NCS); assay type: cell-based; conditions: for phosphorylation of PKB (Western blot 1, FIG. 1): NIH3T3 cells, 1% NCS 20 minutes then compound 15 minutes
Description: PKB is a protein downsteam effector of PI3K, and becomes phosphorylated on (residues required for its activity) in response to the activation of PI3K. Natal Calf Serum (NCS) is a stimulator of PI3K and thus subsequently results in PKB activation. Therefore the positive control used in experiments is 10% serum and a negative control used is provided with no serum at all.
Compound 48/80 is the condensation product of N-methyl-p-methoxyphenethylamine and formaldehyde and is a mixture of cationic amphiphiles of varying degrees of polymerisation.
In a typical method, NIH3T3 cells were grown in media (GibcoBRL) containing 10% NCS to near confluency in six well plates. The cells were starved using 0.5% serum for 2-3 days. The media was then removed and replaced with serum free media for 15 minutes. Subsequently, 1% NCS was added to reaction wells, and 0%, 1% and 10% NCS to control wells. After 20 minutes incubation, then compound was added, and the wells incubated for a further 15 minutes. Media was removed and sample buffer was added and the cells lysed, boiled, centrifuged.
Samples were subjected to gel electrophoresis by 10% SDS-PAGE and then Western blotted on to PVDF membrane (Biorad) according to standard protocols. Western blots were probed using primary antibodies against PKB purchased from New England Biolabs and secondary antibodies of goat anti-rabbit IgG coupled to horseradish peroxidase (Amersham). The membranes were then developed using a freshly prepared ECL solution according to standard protocols.

[2] = Dilution of compounds into water (observed solubility)
Description: The monomer, dimer and trimer of compound 48/80 were received as synthesised from Macba Numbere at UCL.

[3] = diluted into water initially, afterwards into DMSO

Compound	overall effect on PKB (conclusion from these studies) [1]	PKB Ser473 phosphorylation (Western blot 3) ([1]; 5 μg/mL experiment, controls contain DMSO at 2.5%)	solubility on dilution into water [2, 3]	phosphorylation of PKB (Western blot 1, FIG. 1) ([1]; 3 μg/mL)	phosphorylation of PKB (Western blot 1, FIG. 1) ([1]; 6 μg/mL)	solubility on dilution into water [2]
CNCCc1ccc(OC)cc1 [monomer, N-methyl-p-methoxyphenethylamine]	activating species	slight activation above control levels	solubility problems	–	–	–
CNCCc1ccc(OC)c(Cc2cc(CCNC)cc(Cc3cc(CCNC)ccc3OC)c2OC)c1.Cl.Cl.Cl [trimer]	inhibiting species	–	–	just below that of 1% serum activation	almost completely inhibited	solubility problems
Benzeneethanamine-3,3′-methylenebis(4-methoxy-N-methyl) dihydrochloride [dimer]	–	–	solubility problems	–	–	–
